Experimental data as given in patent publication US5142046A, “Optically active pyridobenzoxazine derivatives and intermediates thereof” (Daiichi Pharmaceutical Co., Ltd., priority 1985, dated 1992).
Values after ≈ are worked out from the molar mass of the structure shown.

Columns and labels:
in vivo = details: mouse, iv
Ser. marcescens, 10100 = assay: Minimum Inhibitory Concentration (MIC), standard method of The Japan Society of Chemotherapy; details: Serratia marcescens, 10100, read-out: Minimum Inhibitory Concentration (MIC)
From the text: (§1) The test method was in accordance with the standard method specified by The Japan Society of Chemotherapy.

Ps. aeruginosa, 32121 = assay: as above; details: Pseudomonas aeruginosa, 32121, read-out: Minimum Inhibitory Concentration (MIC)
From the text: as §1

S. aureaus, Smith = assay: as above; details: read-out: Minimum Inhibitory Concentration (MIC)
From the text: as §1

S. aureaus, 209P = assay: as above; details: read-out: Minimum Inhibitory Concentration (MIC)
From the text: as §1

male mice = assay: acute intravenous toxicity in male mice; details: for Day after treatment 1 (number of mice dead) / Day after treatment 2 (number of mice dead) / Day after treatment 3 (number of mice dead) / Mortality: i.v.; for Day after treatment 1 (number of mice dead) / Day after treatment 2 (number of mice dead) / Day after treatment 3 (number of mice dead): 5 male mice; for Day after treatment 1 (number of mice dead): day 1; for Day after treatment 2 (number of mice dead): day 2; for Day after treatment 3 (number of mice dead): day 3; for Mortality: male mice; for acute toxicity (LD50) compared with racemate, in words: mice, intravenous, relative to (±)-compound
Ps. maltophilia, IID1275 = assay: Minimum Inhibitory Concentration (MIC), standard method of The Japan Society of Chemotherapy; details: Stenotrophomonas maltophilia, IID1275, read-out: Minimum Inhibitory Concentration (MIC)
From the text: as §1

Str. pyogenes, G-36 = assay: as above; details: Streptococcus pyogenes, G36, read-out: Minimum Inhibitory Concentration (MIC)
From the text: as §1

K. pneumoniae, Type 2 = assay: as above; details: Klebsiella pneumoniae, TYPE2, read-out: Minimum Inhibitory Concentration (MIC)
From the text: as §1

E. coli, NIHJ = assay: as above; details: Escherichia coli, read-out: Minimum Inhibitory Concentration (MIC)
From the text: as §1

Ps. aeruginosa, 32104 = assay: as above; details: Pseudomonas aeruginosa, 32104, read-out: Minimum Inhibitory Concentration (MIC)
From the text: as §1

various microorganisms = assay: antimicrobial activity compared with racemic Ofloxacin (summary); assay type: cell-based; details: relative to (±)-compound

CC1COc2c(N3CCN(C)CC3)c(F)cc3c(=O)c(C(=O)O)cn1c23 (racemic) [Racemic Ofloxacin, (±)-9-fluoro-3-methyl-10-(4-methyl-1-piperazinyl)-7-oxo-2,3-dihydro-7H-pyrido[1,2,3-de][1,4]-benzoxazine-6-carboxylic acid, reference compound]
LD50 (in vivo): 203 mg/kg
MIC (Ser. marcescens, 10100): 0.1 µg/mL (≈ 0.277 µM)
MIC (Ps. aeruginosa, 32121): 0.2 µg/mL (≈ 0.553 µM)
MIC (S. aureaus, Smith): 0.2 µg/mL (≈ 0.553 µM)
MIC (S. aureaus, 209P): 0.39 µg/mL (≈ 1.08 µM)
Day after treatment 1 (number of mice dead) (male mice; 100 mg/kg): 0
Day after treatment 2 (number of mice dead) (male mice; 100 mg/kg): 0
Day after treatment 3 (number of mice dead) (male mice; 100 mg/kg): 0
Mortality (male mice; 100 mg/kg): 0/5
Day after treatment 1 (number of mice dead) (male mice; 200 mg/kg): 2
Day after treatment 2 (number of mice dead) (male mice; 200 mg/kg): 0
Day after treatment 3 (number of mice dead) (male mice; 200 mg/kg): 0
Mortality (male mice; 200 mg/kg): 2/5
Day after treatment 1 (number of mice dead) (male mice; 400 mg/kg): 5
Day after treatment 2 (number of mice dead) (male mice; 400 mg/kg): 0
Day after treatment 3 (number of mice dead) (male mice; 400 mg/kg): 0
Mortality (male mice; 400 mg/kg): 5/5
MIC (Ps. maltophilia, IID1275): 0.78 µg/mL (≈ 2.16 µM)
MIC (Str. pyogenes, G-36): 1.56 µg/mL (≈ 4.32 µM)
MIC (K. pneumoniae, Type 2): 0.1 µg/mL (≈ 0.277 µM)
MIC (E. coli, NIHJ): < 0.1 µg/mL
MIC (Ps. aeruginosa, 32104): 0.78 µg/mL (≈ 2.16 µM)

CCN1CCN(c2c(F)cc3c(=O)c(C(=O)O)cn4c3c2OC[C@@H]4C)CC1 [Example 17, (S)-(-)-9-Fluoro-3-Methyl-10-(4-Ethyl-1-Piperazinyl)-7-Oxo-2,3-Dihydro-7H-Pyrido[1,2,3-de][1,4]Benzoxazine-6-Carboxylic Acid]
MIC (Ser. marcescens, 10100): < 0.1 µg/mL
MIC (Ps. aeruginosa, 32121): 0.1 µg/mL (≈ 0.266 µM)
MIC (S. aureaus, Smith): < 0.1 µg/mL
MIC (S. aureaus, 209P): 0.1 µg/mL (≈ 0.266 µM)
MIC (Ps. maltophilia, IID1275): 0.1 µg/mL (≈ 0.266 µM)
MIC (Str. pyogenes, G-36): 1.56 µg/mL (≈ 4.16 µM)
MIC (K. pneumoniae, Type 2): < 0.1 µg/mL
MIC (E. coli, NIHJ): < 0.1 µg/mL
MIC (Ps. aeruginosa, 32104): 0.39 µg/mL (≈ 1.04 µM)

C[C@@H]1COc2c(N3CCN(C)CC3)c(F)cc3c(=O)c(C(=O)O)cn1c23 [R(+)-Ofloxacin]
MIC (Ser. marcescens, 10100): 1.56 µg/mL (≈ 4.32 µM)
MIC (Ps. aeruginosa, 32121): 6.25 µg/mL (≈ 17.3 µM)
MIC (S. aureaus, Smith): 6.25 µg/mL (≈ 17.3 µM)
MIC (S. aureaus, 209P): 25 µg/mL (≈ 69.2 µM)
Day after treatment 1 (number of mice dead) (male mice; 100 mg/kg): 0
Day after treatment 2 (number of mice dead) (male mice; 100 mg/kg): 0
Day after treatment 3 (number of mice dead) (male mice; 100 mg/kg): 0
Mortality (male mice; 100 mg/kg): 0/5
Day after treatment 1 (number of mice dead) (male mice; 200 mg/kg): 3
Day after treatment 2 (number of mice dead) (male mice; 200 mg/kg): 0
Day after treatment 3 (number of mice dead) (male mice; 200 mg/kg): 0
Mortality (male mice; 200 mg/kg): 3/5
Day after treatment 1 (number of mice dead) (male mice; 400 mg/kg): 5
Day after treatment 2 (number of mice dead) (male mice; 400 mg/kg): 0
Day after treatment 3 (number of mice dead) (male mice; 400 mg/kg): 0
Mortality (male mice; 400 mg/kg): 5/5
acute toxicity (LD50) compared with racemate, in words (male mice): substantially equal to that of the (±)-compound
MIC (Ps. maltophilia, IID1275): 12.5 µg/mL (≈ 34.6 µM)
MIC (Str. pyogenes, G-36): < 100 µg/mL
MIC (K. pneumoniae, Type 2): 1.56 µg/mL (≈ 4.32 µM)
MIC (E. coli, NIHJ): 0.39 µg/mL (≈ 1.08 µM)
MIC (Ps. aeruginosa, 32104): 12.5 µg/mL (≈ 34.6 µM)

C[C@H]1COc2c(N3CCN(C)CC3)c(F)cc3c(=O)c(C(=O)O)cn1c23 [S(-)-Ofloxacin, S-(-)-9-Fluoro-3-Methyl-10-(4-Methyl-1-Piperazinyl)-7-oxo-2,3-Dihydro-7H-Pyrido[1,2,3-de][1,4]Benzoxazine-6-Carboxylic Acid]
MIC (Ser. marcescens, 10100): < 0.1 µg/mL
MIC (Ps. aeruginosa, 32121): 0.1 µg/mL (≈ 0.277 µM)
MIC (S. aureaus, Smith): 0.1 µg/mL (≈ 0.277 µM)
MIC (S. aureaus, 209P): 0.2 µg/mL (≈ 0.553 µM)
LD50 (male mice; i.v. in mice): 244 mg/kg
Day after treatment 1 (number of mice dead) (male mice; 100 mg/kg): 0
Day after treatment 2 (number of mice dead) (male mice; 100 mg/kg): 0
Day after treatment 3 (number of mice dead) (male mice; 100 mg/kg): 0
Mortality (male mice; 100 mg/kg): 0/5
Day after treatment 1 (number of mice dead) (male mice; 200 mg/kg): 0
Day after treatment 2 (number of mice dead) (male mice; 200 mg/kg): 0
Day after treatment 3 (number of mice dead) (male mice; 200 mg/kg): 0
Mortality (male mice; 200 mg/kg): 0/5
Day after treatment 1 (number of mice dead) (male mice; 400 mg/kg): 5
Day after treatment 2 (number of mice dead) (male mice; 400 mg/kg): 0
Day after treatment 3 (number of mice dead) (male mice; 400 mg/kg): 0
Mortality (male mice; 400 mg/kg): 5/5
acute toxicity (LD50) compared with racemate, in words (male mice): weaker
MIC (Ps. maltophilia, IID1275): 0.39 µg/mL (≈ 1.08 µM)
MIC (Str. pyogenes, G-36): 0.78 µg/mL (≈ 2.16 µM)
MIC (K. pneumoniae, Type 2): < 0.1 µg/mL
antimicrobial activity, times higher than that of the (±)-compound (various microorganisms): about 2 times
MIC (E. coli, NIHJ): < 0.1 µg/mL
MIC (Ps. aeruginosa, 32104): 0.39 µg/mL (≈ 1.08 µM)
